Data set [1] concerns L. major promastigotes. Put plainly: L. major promastigotes from 4-days cultures, 3H-thymidine uptake (Examples 5, 14). To be noted: for inhibition at 0.5 µg/mL / inhibition at 1 µg/mL / inhibition at 5 µg/mL / inhibition at 10 µg/mL / inhibition at 20 µg/mL: Leishmania major; for inhibition at 0.5 µg/mL: 0.5 μg/ml; for inhibition at 1 µg/mL: 1 μg/ml; for inhibition at 5 µg/mL: 5 μg/ml; for inhibition at 10 µg/mL: 10 μg/ml; for inhibition at 20 µg/mL: 20 μg/ml. It is filed as cell-based, Leishmania major. How it is done: Parasite cultures. The same parasite culture as described in Example 4. Promastigotes were harvested on day 4 of the culture and used for the parasiticidal assay.
Effect on promastigotes. […] Following incubation, […] of ^3H-thymidine was added to each well and further incubated for 18 hrs. Promastigotes were then harvested on filter paper by means of a cell harvester (Skatron, Lierbyen, Norway), extensively washed with distilled water and counted in a scintillation counter (Minaxi Ti-Carb 4000, United Technologies, Packard, USA).
L. major promastigotes. The L. major promastigotes were prepared as described in Example 4 and harvested after 4 days.

For data set [2], the system named is human lymphocytes. Put plainly: Lymphocyte Proliferation Assay, 3H-thymidine incorporation (Example 13). The conditions noted are these: for inhibition at 0.5 µg/mL / inhibition at 1 µg/mL / inhibition at 5 µg/mL / inhibition at 10 µg/mL: Homo sapiens, Lymphocyte, read-out: inhibition of lymphocytes (lower figure). (In general: Uptake of a labelled nucleoside into DNA is a usual measure of proliferation.)

Where [3] appears, read: read-out: percentage inhibition of 3H-thymidine uptake (mean ± SEM), Table 5.1.
Where [4] appears, read: Table 14.1, read-out: percentage inhibition of promastigotes (upper figure).

Like-named read-outs stand apart in the source and are kept apart here.

Take `COCCOCOc1ccc(C(=O)/C=C/c2ccc(OC)cc2OC)cc1`: in data set [1] (setting [3]), the inhibition at 0.5 µg/mL was 20%, the inhibition at 1 µg/mL is 14%, the inhibition at 5 µg/mL was 31% and the inhibition at 10 µg/mL was found to be 60.5 ± 5.6%.
For the molecule `O=C(/C=C/c1ccc(O)c(O)c1)c1ccc(O)cc1O`, in data set [1] (setting [4]), the inhibition at 0.5 µg/mL is 7%, the inhibition at 1 µg/mL is 8%, the inhibition at 5 µg/mL stood at 4.2% and the inhibition at 10 µg/mL came out at 10.6%. Besides, in data set [2], the inhibition at 0.5 µg/mL worked out at 0%, the inhibition at 1 µg/mL amounted to 1%, the inhibition at 5 µg/mL came to 12% and the inhibition at 10 µg/mL was found to be 51%.
On to `O=C(/C=C/c1ccccc1)c1ccc(F)cc1`, for which, in data set [1] (setting [4]), the inhibition at 5 µg/mL is 88% and the inhibition at 10 µg/mL was 99%.
As to `COc1cc(OC)c(/C=C/C(=O)c2ccc(O)cc2)c(OC)c1`, in data set [1] (setting [4]), the inhibition at 0.5 µg/mL came to 25 ± 9.5%, the inhibition at 1 µg/mL was 25.6 ± 10.9%, the inhibition at 5 µg/mL amounted to 23.6 ± 10.9% and the inhibition at 10 µg/mL was found to be 25.1 ± 17.3%. Also, in data set [2], the inhibition at 0.5 µg/mL came out at 0%, the inhibition at 1 µg/mL worked out at 0%, the inhibition at 5 µg/mL is 48% and the inhibition at 10 µg/mL is 63.6%.
On to `COc1ccc(/C=C/C(=O)c2ccc(OC)cc2)cc1`, for which, in data set [1] (setting [4]), the inhibition at 0.5 µg/mL stood at 11.7 ± 9.2%, the inhibition at 1 µg/mL was found to be 8.3 ± 4.6%, the inhibition at 5 µg/mL was 35.6 ± 23.4% and the inhibition at 10 µg/mL was 51.8 ± 15.8%. In data set [2], the inhibition at 0.5 µg/mL amounted to 0%, the inhibition at 1 µg/mL was found to be 0%, the inhibition at 5 µg/mL was found to be 0% and the inhibition at 10 µg/mL stood at 0%.
As to `C=CCOc1ccc(C(=O)/C=C/c2ccccc2OC)cc1`, in data set [1] (setting [4]), the inhibition at 0.5 µg/mL came out at 20.9 ± 7.7%, the inhibition at 1 µg/mL is 25.8 ± 15.3%, the inhibition at 5 µg/mL was 52.8 ± 19.1% and the inhibition at 10 µg/mL amounted to 76.6 ± 22.4%. In data set [2], the inhibition at 0.5 µg/mL is 0%, the inhibition at 1 µg/mL amounted to 0%, the inhibition at 5 µg/mL is 1.1% and the inhibition at 10 µg/mL was 80.1%.
Consider `COc1ccc(/C=C/C(=O)c2ccccc2OCC=C(C)C)c(OC)c1`, for which, in data set [1] (setting [4]), the inhibition at 0.5 µg/mL is 4.3%, the inhibition at 1 µg/mL is 1.8%, the inhibition at 5 µg/mL turned out to be 49% and the inhibition at 10 µg/mL worked out at 83.2%. Besides, in data set [2], the inhibition at 0.5 µg/mL was 7.1%, the inhibition at 1 µg/mL came to 6.6%, the inhibition at 5 µg/mL was 8.7% and the inhibition at 10 µg/mL was found to be 35.9%.
Consider `C=CCOc1ccc(C(=O)/C=C/c2c(OC)cc(OC)cc2OC)cc1`, for which, in data set [1] (setting [4]), the inhibition at 0.5 µg/mL fell in the range of 25 to 44%, the inhibition at 1 µg/mL is 15 to 46%, the inhibition at 5 µg/mL was in the range of 14 to 50% and the inhibition at 10 µg/mL fell in the range of 22 to 49%. Further, in data set [2], the inhibition at 0.5 µg/mL came out at 8%, the inhibition at 1 µg/mL worked out at 12%, the inhibition at 5 µg/mL came out at 24% and the inhibition at 10 µg/mL worked out at 48%.
Turning to `C=CCOc1ccc(C(=O)/C=C/c2cc(OC)c(OC)c(OC)c2)cc1`, in data set [1] (setting [4]), the inhibition at 0.5 µg/mL lay within 11 to 45%, the inhibition at 1 µg/mL was in the range of 16 to 47%, the inhibition at 5 µg/mL lay in the range of 44 to 60% and the inhibition at 10 µg/mL lay within 86 to 91%. In data set [2], the inhibition at 0.5 µg/mL was 4%, the inhibition at 1 µg/mL was found to be 4%, the inhibition at 5 µg/mL is 38% and the inhibition at 10 µg/mL was 98%.
Consider `C=CCOc1ccc(C(=O)/C=C/c2cc(OC)c(OC)cc2OC)cc1`, for which, in data set [1] (setting [4]), the inhibition at 0.5 µg/mL was found to be 24 ± 12%, the inhibition at 1 µg/mL came to 23.8 ± 12.5%, the inhibition at 5 µg/mL is 23.2 ± 12.8% and the inhibition at 10 µg/mL was determined as 28.8 ± 16%. In data set [2], the inhibition at 0.5 µg/mL stood at 0%, the inhibition at 1 µg/mL came out at 0%, the inhibition at 5 µg/mL turned out to be 0% and the inhibition at 10 µg/mL was 27.6%.
Consider `COCCOCOc1ccc(C(=O)/C=C/c2ccc(OCC=C(C)C)cc2OC)cc1`, for which, in data set [1] (setting [4]), the inhibition at 0.5 µg/mL stood at 11.5%, the inhibition at 1 µg/mL is 14%, the inhibition at 5 µg/mL is 33.1% and the inhibition at 10 µg/mL is 61.5%. In data set [2], the inhibition at 0.5 µg/mL worked out at 0%, the inhibition at 1 µg/mL stood at 8.1%, the inhibition at 5 µg/mL came to 14.1% and the inhibition at 10 µg/mL stood at 28.3%.
Turning to `COc1ccc(/C=C/C(=O)c2ccc(OCOC(=O)C(C)(C)C)cc2)c(OC)c1`, in data set [1] (setting [4]), the inhibition at 0.5 µg/mL is 3.9%, the inhibition at 1 µg/mL is 0%, the inhibition at 5 µg/mL was 7.9% and the inhibition at 10 µg/mL was found to be 28.6%. In data set [2], the inhibition at 0.5 µg/mL turned out to be 7.1%, the inhibition at 1 µg/mL amounted to 8.2%, the inhibition at 5 µg/mL is 9% and the inhibition at 10 µg/mL was 32.7%.
`O=C(c1ccccc1)C1OC1c1ccccc1` (centres unmarked): in data set [1] (setting [4]), the inhibition at 0.5 µg/mL was determined as 28.4 ± 13%, the inhibition at 1 µg/mL amounted to 33.4 ± 15.4%, the inhibition at 5 µg/mL is 73.2 ± 17.8% and the inhibition at 10 µg/mL came to 88 ± 7.5%. In data set [2], the inhibition at 0.5 µg/mL was determined as 0%, the inhibition at 1 µg/mL was found to be 0%, the inhibition at 5 µg/mL is 2% and the inhibition at 10 µg/mL was 85.4%.
Regarding `COc1ccc(CCC(=O)c2ccco2)c(OC)c1`, in data set [1] (setting [4]), the inhibition at 0.5 µg/mL worked out at 9.5%, the inhibition at 1 µg/mL came out at 9.4%, the inhibition at 5 µg/mL was 55.1% and the inhibition at 10 µg/mL worked out at 89.6%. For the same molecule, in data set [2], the inhibition at 0.5 µg/mL came out at 3.6%, the inhibition at 1 µg/mL turned out to be 11.7%, the inhibition at 5 µg/mL was 33.6% and the inhibition at 10 µg/mL amounted to 41.9%.
As to `COc1ccc(CCC(=O)c2ccc[nH]2)c(OC)c1`, in data set [1] (setting [4]), the inhibition at 0.5 µg/mL was found to be 0.6%, the inhibition at 1 µg/mL was found to be 9.4%, the inhibition at 5 µg/mL came out at 18.5% and the inhibition at 10 µg/mL came to 40.6%. In data set [2], the inhibition at 0.5 µg/mL was found to be 10%, the inhibition at 1 µg/mL was 2%, the inhibition at 5 µg/mL stood at 20% and the inhibition at 10 µg/mL stood at 41.9%.
Turning to `COc1ccc(CCC(=O)c2ccc(O)cc2)c(OC)c1` [3-(2,4-dimethoxyphenyl)-1-(4-hydroxyphenyl)propan-1-on, reference compound], the “activity against Leishmania parasites in vitro” value in data set [1] is recorded as “very low activity”.
Take `O=C(/C=C/c1ccccc1)c1ccccc1` [chalcone, reference compound]: the “activity against Leishmania parasites in vitro” value in data set [1] is listed as “very high activity”. Moreover, the “toxicity against human lymphocytes” value in data set [2] is “extremely high toxicity”.
Take `O=C(/C=C/c1ccccc1)c1ccc(O)cc1` [drawing 53]: in data set [1] (setting [3]), the inhibition at 1 µg/mL is 35.9%, the inhibition at 5 µg/mL was 70.8%, the inhibition at 10 µg/mL was 82.8% and the inhibition at 20 µg/mL is 91.9 ± 2.1%.
The matching figures for `O=C(/C=C/c1ccc(O)cc1)c1ccccc1` [drawing 54]: 39.1%, 70.1%, 84.5% and 94.3 ± 1.6%.
On to `COc1ccc(/C=C/C(=O)c2ccc(O)cc2)c(OC)c1` [drawing 55], for which, in data set [1] (setting [3]), the inhibition at 0.5 µg/mL was 19.4%, the inhibition at 1 µg/mL was 27.3%, the inhibition at 5 µg/mL is 61.8% and the inhibition at 10 µg/mL was 91.9 ± 4.6%.
Consider `C=CCOc1ccc(C(=O)/C=C/c2ccc(OC)cc2OC)cc1` [drawing 56], for which, in data set [1] (setting [3]), the inhibition at 0.5 µg/mL is 7.5%, the inhibition at 1 µg/mL was 17.5%, the inhibition at 5 µg/mL was 64.5% and the inhibition at 10 µg/mL was 84.3 ± 3.5%.
As to `COCOc1ccc(C(=O)/C=C/c2ccc(OC)cc2OC)cc1` [drawing 58], in data set [1] (setting [3]), the inhibition at 0.5 µg/mL was 8.5%, the inhibition at 1 µg/mL was 18.1%, the inhibition at 5 µg/mL was 56.3% and the inhibition at 10 µg/mL is 65 ± 5.9%.
Take `COc1cc(/C=C/C(=O)c2ccc(O)cc2O)ccc1O` [drawing 59]: in data set [1] (setting [3]), the inhibition at 0.5 µg/mL is 7.8%, the inhibition at 1 µg/mL was 14.3%, the inhibition at 5 µg/mL is 66.7% and the inhibition at 10 µg/mL came out at 83.3 ± 4.6%.
Take `O=C(/C=C/c1ccccc1)c1ccccc1` [drawing 60]: in data set [1] (setting [4]), the inhibition at 0.5 µg/mL was determined as 21.6%, the inhibition at 1 µg/mL is 34.8%, the inhibition at 5 µg/mL was 91.9% and the inhibition at 10 µg/mL stood at 97.3%. Further, in data set [2], the inhibition at 0.5 µg/mL worked out at 2%, the inhibition at 1 µg/mL was determined as 7.3%, the inhibition at 5 µg/mL turned out to be 91% and the inhibition at 10 µg/mL came out at 100%.
Turning to `CC(C)=CCc1c(O)ccc(C(=O)/C=C/c2cc(O)c3c(c2)C=CC(C)(C)O3)c1O` [drawing 97], the inhibition at 10 µg/mL in data set [1] (setting [4]) was determined as 18%.
Take `CC(C)=CCc1cc(/C=C/C(=O)c2ccc(O)c(CC=C(C)C)c2O)ccc1O` [drawing 98]: in data set [1] (setting [4]), the inhibition at 1 µg/mL came out at 12%, the inhibition at 5 µg/mL was 28% and the inhibition at 10 µg/mL was 91%.

As a reminder, the inhibition is the percentage by which the read-out fell short of the control.

The values are drawn from patent publication US6603046B1, “Bis-aromatic a,β-unsaturated ketones” (Lica Pharmaceuticals A/S, priority 1992, dated 2003).
